Assay results as given in patent US20260285850A1, “SUBSTITUTED OXAZOLIDINONES AND IMIDAZOLINONES AS HERBICIDES” (FMC CORPORATION, priority 2023, published 2026).

Legend:
Assay type in all cases: in vivo
[1] = tested on: rice (Oryza sativa); experiment: Test B flooded paddy test, visual plant response rating 0-100; conditions: 250 g ai/ha, Flood, applied to paddy water, evaluated after 13 days
Procedure, shortened: (§1)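 2-leaf plants; flood 3 cm over soil; compound dosed into paddy water; depth kept constant; greenhouse 13 d; visual scoring vs controls. Dash = no result.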

[2] = tested on: sedge, umbrella (small-flower umbrella sedge, Cyperus difformis); experiment: as above; conditions: 250 g ai/ha, Flood, applied to paddy water, evaluated after 13 days
Procedure, shortened: as §1

[3] = tested on: ducksalad (Heteranthera limosa); experiment: as above; conditions: 250 g ai/ha, Flood, applied to paddy water, evaluated after 13 days
Procedure, shortened: as §1

[4] = tested on: barnyardgrass (Echinochloa crusgalli); experiment: as above; conditions: 250 g ai/ha, Flood, applied to paddy water, evaluated after 13 days
Procedure, shortened: as §1

[5] = tested on: corn (Zea mays); experiment: Test A preemergence soil spray, visual injury rating 0-100; conditions: 10 days, 0 = no effect, 100 = complete control
Procedure, shortened: (§2)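 Preemergence directed soil spray or postemergence spray (2-10 cm, 1-2 leaf); loam/sand mix; compound in non-phytotoxic solvent + surfactant. Greenhouse, 10 d. Visual injury vs untreated, 0 = none, 100 = complete control.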

[6] = tested on: kochia (Bassia scoparia); experiment: as above; conditions: 10 days, 0 = no effect, 100 = complete control
Procedure, shortened: as §2

[7] = tested on: oat, wild (wild oat, Avena fatua); experiment: as above; conditions: 10 days, 0 = no effect, 100 = complete control
Procedure, shortened: as §2

[8] = tested on: wheat (Triticum aestivum); experiment: as above; conditions: 10 days, 0 = no effect, 100 = complete control
Procedure, shortened: as §2

[9] = tested on: soybean (Glycine max); experiment: as above; conditions: 10 days, 0 = no effect, 100 = complete control
Procedure, shortened: as §2

[10] = tested on: green foxtail (Setaria viridis); experiment: as above; conditions: 10 days, 0 = no effect, 100 = complete control
Procedure, shortened: as §2

[11] = tested on: ryegrass, Italian (italian ryegrass, Lolium multiflorum); experiment: as above; conditions: 10 days, 0 = no effect, 100 = complete control
Procedure, shortened: as §2

[12] = tested on: barnyardgrass (Echinochloa crus-galli); experiment: as above; conditions: 10 days, 0 = no effect, 100 = complete control
Procedure, shortened: as §2

[13] = tested on: blackgrass (Alopecurus myosuroides); experiment: as above; conditions: 10 days, 0 = no effect, 100 = complete control
Procedure, shortened: as §2

[14] = tested on: palmer (palmer amaranth, palmer pigweed, Amaranthus palmeri); experiment: as above; conditions: 10 days, 0 = no effect, 100 = complete control
Procedure, shortened: as §2

[15] = tested on: corn (Zea mays); experiment: Test A postemergence application, visual injury rating 0-100; conditions: Postemergence, 10 days, 0 is no effect, 100 is complete control
Procedure, shortened: as §2

[16] = tested on: kochia (Bassia scoparia); experiment: as above; conditions: Postemergence, 10 days, 0 is no effect, 100 is complete control
Procedure, shortened: as §2

[17] = tested on: galium (catchweed bedstraw, Galium aparine); experiment: as above; conditions: Postemergence, 10 days, 0 is no effect, 100 is complete control
Procedure, shortened: as §2

[18] = tested on: oat, wild (wild oat, Avena fatua); experiment: as above; conditions: Postemergence, 10 days, 0 is no effect, 100 is complete control
Procedure, shortened: as §2

[19] = tested on: wheat (Triticum aestivum); experiment: as above; conditions: Postemergence, 10 days, 0 is no effect, 100 is complete control
Procedure, shortened: as §2

[20] = tested on: ragweed (common ragweed, Ambrosia artemisiifolia); experiment: as above; conditions: Postemergence, 10 days, 0 is no effect, 100 is complete control
Procedure, shortened: as §2

[21] = tested on: soybean (Glycine max); experiment: as above; conditions: Postemergence, 10 days, 0 is no effect, 100 is complete control
Procedure, shortened: as §2

[22] = tested on: horseweed (Erigeron canadensis); experiment: as above; conditions: Postemergence, 10 days, 0 is no effect, 100 is complete control
Procedure, shortened: as §2

[23] = tested on: green foxtail (Setaria viridis); experiment: as above; conditions: Postemergence, 10 days, 0 is no effect, 100 is complete control
Procedure, shortened: as §2

[24] = tested on: ryegrass, Italian (italian ryegrass, Lolium multiflorum); experiment: as above; conditions: Postemergence, 10 days, 0 is no effect, 100 is complete control
Procedure, shortened: as §2

[25] = tested on: barnyardgrass (Echinochloa crus-galli); experiment: as above; conditions: Postemergence, 10 days, 0 is no effect, 100 is complete control
Procedure, shortened: as §2

[26] = tested on: blackgrass (Alopecurus myosuroides); experiment: as above; conditions: Postemergence, 10 days, 0 is no effect, 100 is complete control
Procedure, shortened: as §2

[27] = tested on: palmer (palmer amaranth, palmer pigweed, Amaranthus palmeri); experiment: as above; conditions: Postemergence, 10 days, 0 is no effect, 100 is complete control
Procedure, shortened: as §2

## COCCOC(=O)C1C=CC(NC(=O)C2(C)CN(c3cc(F)cc(F)c3)C(=O)O2)C1 (centres unmarked) [Compound 36]
[1]
  Plant response rating, Rice (0 to 100 scale, 0 is no effect and 100 is complete control): 55
[2]
  Plant response rating, Sedge, Umbrella (0 to 100 scale, 0 is no effect and 100 is complete control): 95
[3]
  Plant response rating, Ducksalad (0 to 100 scale, 0 is no effect and 100 is complete control): 90
[4]
  Plant response rating, Barnyardgrass (0 to 100 scale, 0 is no effect and 100 is complete control): 60
[5]; 125 g ai/ha
  Corn plant response rating (0 to 100 scale): 90
[5]; 500 g ai/ha
  Corn plant response rating (0 to 100 scale): 90
[6]; 125 g ai/ha
  Kochia plant response rating (0 to 100 scale): 90
[6]; 500 g ai/ha
  Kochia plant response rating (0 to 100 scale): 100
[7]; 125 g ai/ha
  Oat, Wild plant response rating (0 to 100 scale): 90
[7]; 500 g ai/ha
  Oat, Wild plant response rating (0 to 100 scale): 90
[8]; 125 g ai/ha
  Wheat plant response rating (0 to 100 scale): 90
[8]; 500 g ai/ha
  Wheat plant response rating (0 to 100 scale): 100
[9]; 125 g ai/ha
  Soybean plant response rating (0 to 100 scale): 60
[9]; 500 g ai/ha
  Soybean plant response rating (0 to 100 scale): 80
[10]; 125 g ai/ha
  Foxtail, Green plant response rating (0 to 100 scale): 100
[10]; 500 g ai/ha
  Foxtail, Green plant response rating (0 to 100 scale): 100
[11]; 125 g ai/ha
  Ryegrass, Italian plant response rating (0 to 100 scale): 100
[11]; 500 g ai/ha
  Ryegrass, Italian plant response rating (0 to 100 scale): 100
[12]; 125 g ai/ha
  Barnyardgrass plant response rating (0 to 100 scale): 100
[12]; 500 g ai/ha
  Barnyardgrass plant response rating (0 to 100 scale): 100
[13]; 125 g ai/ha
  Blackgrass plant response rating (0 to 100 scale): 80
[13]; 500 g ai/ha
  Blackgrass plant response rating (0 to 100 scale): 100
[14]; 125 g ai/ha
  Amaranth, Palmer plant response rating (0 to 100 scale): 80
[14]; 500 g ai/ha
  Amaranth, Palmer plant response rating (0 to 100 scale): 100
[15]; 125 g ai/ha
  Corn plant response rating (0 to 100 scale): 100
[15]; 500 g ai/ha
  Corn plant response rating (0 to 100 scale): 100
[16]; 125 g ai/ha
  Kochia plant response rating (0 to 100 scale): 60
[16]; 500 g ai/ha
  Kochia plant response rating (0 to 100 scale): 70
[17]; 125 g ai/ha
  Galium plant response rating (0 to 100 scale): 70
[17]; 500 g ai/ha
  Galium plant response rating (0 to 100 scale): 80
[18]; 125 g ai/ha
  Oat, Wild plant response rating (0 to 100 scale): 90
[18]; 500 g ai/ha
  Oat, Wild plant response rating (0 to 100 scale): 100
[19]; 125 g ai/ha
  Wheat plant response rating (0 to 100 scale): 70
[19]; 500 g ai/ha
  Wheat plant response rating (0 to 100 scale): 80
[20]; 125 g ai/ha
  Ragweed plant response rating (0 to 100 scale): 60
[20]; 500 g ai/ha
  Ragweed plant response rating (0 to 100 scale): 80
[21]; 125 g ai/ha
  Soybean plant response rating (0 to 100 scale): 70
[21]; 500 g ai/ha
  Soybean plant response rating (0 to 100 scale): 80
[22]; 125 g ai/ha
  Horseweed plant response rating (0 to 100 scale): 70
[22]; 500 g ai/ha
  Horseweed plant response rating (0 to 100 scale): 90
[23]; 125 g ai/ha
  Foxtail, Green plant response rating (0 to 100 scale): 80
[23]; 500 g ai/ha
  Foxtail, Green plant response rating (0 to 100 scale): 90
[24]; 125 g ai/ha
  Ryegrass, Italian plant response rating (0 to 100 scale): 90
[24]; 500 g ai/ha
  Ryegrass, Italian plant response rating (0 to 100 scale): 80
[25]; 125 g ai/ha
  Barnyardgrass plant response rating (0 to 100 scale): 100
[25]; 500 g ai/ha
  Barnyardgrass plant response rating (0 to 100 scale): 100
[26]; 125 g ai/ha
  Blackgrass plant response rating (0 to 100 scale): 100
[26]; 500 g ai/ha
  Blackgrass plant response rating (0 to 100 scale): 100
[27]; 125 g ai/ha
  Amaranth, Palmer / Pigweed, Palmer plant response rating (0 to 100 scale): 60
[27]; 500 g ai/ha
  Amaranth, Palmer / Pigweed, Palmer plant response rating (0 to 100 scale): 100
